Here are results for 3 molecules from patent US7718385B2, “Bioactivation of alkylating agents for cancer treatment” (priority 2003, dated 2010).

The target in one data set is recombinant rat AOR (Rattus norvegicus, UniProt P97584, Q160G/Q263G/Q264G/Q276G).
A further data set concerns the target T1, recombinant AOR (Rattus norvegicus, UniProt P97584, Q160G/Q263G/Q264G/Q276G).
T1 construct: made in house
The data set can be described thus: LC/MS/MS of enzymatic and nonenzymatic GSH adducts. The format is biochemical. On the procedure: High Performance Liquid Chromatography with Tandem Mass Spectrometry (LC/MS/MS) of GSA Adducts. […] These reactions were incubated at 37° C. for 1 h. Controls lacking NAFPH were performed. Reactions were stopped and deproteinized with addition of 400 μl of ice-cold acetonitrile, spun at 3500×g for 10 min at 4° C., and the supernatants were evaporated to dryness under vacuum. Residual GSH and NADPH cofactors were removed using an Oasis C18 sample prep column (Waters Chromatography). Adducts were eluted with methanol, evaporated to dryness under vacuum, resuspended in […] of 0.1% acetic acid, and detected using liquid chromatography electrospray ionization tandem mass spectrometry performed in the positive ion mode. […] A flow rate of 0.1 ml/min and gradient of 0% buffer D (70% acetic acid (0.1%):30% acetonitrile) to 100% buffer E (20% acetic acid (0.1%):80% acetonitrile) over 30 min were used to resolve the compounds. Adducts were detected by monitoring for selected molecular ions or characteristic molecular fragments after MS/MS. Molecular fragments were obtained with 35% relative collusion energy.
Measuring GSH adduction is a commonly used technique for estimating covalent protein binding, and thus cytotoxicity, of a drug (Baillie and Kassahun, 2001). The nucleophilic thiol moiety of GSH effectively scavenges electrophilic molecules and its large size and charge prevent it from entering the active site of most enzymes. […] Daughter ions of adducts, which represent the loss of water (−18 m/z) or […] (−129 m/z), were common and monitored for in these experiments following MS/MS.
Enzymatic reduction occurred in incubations containing recombinant AOR, NADPH, and GSH, while companion nonenzymatic reductions lacked NADPH. […] However the NE irofulven-GSH adduct (FIG. 5B) was detected only after monitoring for a daughter ion (M+—H2)=536 m/z) and was 42-fold less abundant than the E adduct. […] Contrary to findings with irofulven, a great deal of NE illudin M-GSH adduct was detected in NADPH-deficient incubations.

One may read the Km as the concentration of substrate that gives half-maximal velocity.

Read-outs that look alike come from different tables or passages of the source.

Chain of recombinant rat AOR (P97584 whole entry Q160G/Q263G/Q264G/Q276G): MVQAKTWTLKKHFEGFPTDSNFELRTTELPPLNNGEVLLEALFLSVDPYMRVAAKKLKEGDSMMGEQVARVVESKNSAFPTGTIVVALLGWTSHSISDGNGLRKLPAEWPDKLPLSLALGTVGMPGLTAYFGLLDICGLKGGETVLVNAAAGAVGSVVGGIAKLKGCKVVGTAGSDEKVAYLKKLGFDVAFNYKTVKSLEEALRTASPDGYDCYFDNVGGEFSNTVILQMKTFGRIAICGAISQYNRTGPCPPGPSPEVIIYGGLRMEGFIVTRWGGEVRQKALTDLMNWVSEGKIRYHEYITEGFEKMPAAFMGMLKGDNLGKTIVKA
T1 sequence (P97584 whole entry Q160G/Q263G/Q264G/Q276G): as above
Description for recombinant rat AOR: Varied concentrations of illudin M were added to a 200 μl 0.5× phosphate buffered saline (PBS) solution containing 115 ng of AOR and 43.4 nmoles NADPH, and incubated for 1 minute at 37° C. Reactions were then extracted with ethyl acetate containing piperine (internal standard), dried under vacuum, resuspended in HPLC buffer A (60% acetonitrile: 40% water), and injected into a Hewlett-Packard 1050 HPLC system equipped with a Luna C18 column (Phenomenex Inc.). Metabolites were separated using buffer A at a flow rate of 1 ml/min and quantified using diode array detection at 205 nm and previously reported extinction coefficients (Tanaka, et al., 1990). Vmax and Km were calculated using the HYPER program.
Rates were quantified from metabolite peak areas using reported extinction coefficients (Tanaka, et al., 1990; McMorris, et al., 1999).

With `O=c1oc2ccccc2c(O)c1Cc1c(O)c2ccccc2oc1=O` [dicumarol, Dicumarol], the “effect on AOR-mediated activation of irofulven” value with 293 cells is recorded as “attenuated partially”. Further, the “effect on cell growth” value in the data set with 293 cells (100 μM, alone) was “no effect on cell growth”.

With `CC1=C2C(=C[C@@](C)(CO)[C@@H]2O)C(=O)[C@](C)(O)C12CC2` [Illudin S], the Km on recombinant rat AOR was 308 µM; at recombinant rat AOR (formation of Product 5), 486 µM; at recombinant rat AOR (formation of Product 6), 308 µM. Further, the “maximal rate of metabolism by AOR” value on recombinant rat AOR was 115.9 µmol/min/mg. Further, the figures for the Vmax at recombinant rat AOR (formation of Product 5) and at recombinant rat AOR (formation of Product 6) were 65,400 nmol/min/mg and 50,500 nmol/min/mg, respectively.

On to `CC1=C2C(=CC(C)(C)[C@@H]2O)C(=O)[C@](C)(O)C12CC2` [Illudin M], for which, on recombinant AOR (NADPH-deficient incubations), the “NE GSH adduct detected” value was “a great deal”. For the same molecule, the “abundance of E (enzymatic) GSH adduct over NE (nonenzymatic) adduct” value on recombinant AOR (incubations with AOR, GSH and NADPH, 1 h, 37° C.) is on record as 14 fold. On recombinant rat AOR, the Km amounted to 109 µM and the “maximal rate of metabolism by AOR” value came out at 44.1 µmol/min/mg. On recombinant rat AOR (formation of Product 3), the Km is 109 µM and the Vmax is 29,200 nmol/min/mg. Besides, at recombinant rat AOR (formation of Product 4), the Km amounted to 113 µM and the Vmax is given as 14,900 nmol/min/mg. Also, the CC50 with 293 cells (read-out: LC50 (concentration required to produce 50 percent lethality), 293 cells, 24 h, MTT assay) was approximately 1000 nM.
